{
  "source": "patent US11661409B1",
  "about": "“Acid addition salts, compositions, and methods of treating” (Pioneura Corporation, priority 2022, dated 2023)",
  "key": {"[1]": {"details": "mice; cited from earlier work"}, "[2]": {"test": "Solubility in methanol, ethanol, 95% ethanol", "format": "physicochemical", "from_the_text": "Dual solvent systems were used, comprising methanol and ether, by dissolving the salt in a small volume of methanol and then adjusting the solubility by adding ether to the point of slight cloudiness. These samples then remained in the reaction vessel as needed to precipitate."}, "[3]": {"test": "Pharmacokinetics of aqueous suspensions in mice", "details": "for Cmax: equimolar dose 10 mg/kg of free base, plasma Compound 1", "quoted_text": "(§1) Blood was sampled with microbleeds frequently to produce the pharmacokinetics curves (AUCs).\n(§2) The dosing suspension was analyzed before administration to the animals to ensure that the actual concentration was known."}, "[4]": {"test": "Solubility and plasma levels of Compound 1 (general statements)", "format": "physicochemical", "from_the_text": "There is a significant, unmet need for means to administer Compound 1 to treat diseases or disorders, such as diseases or disorders associated with neuroinflammation. The present disclosure fulfills these and other needs, as evident in reference to the following disclosure.\nTo improve solubility, attempts to prepare acid addition salts from suitably acidic carboxylic acids (e.g., fumaric acid, maleic acid, citric acid, tartaric acid), standard mineral acids (e.g., hydrobromic acid, sulfuric acid, phosphoric acid), and sulfonic acids (e.g., toluenesulfonic acid, methanesulfonic acid, ethanesulfonic acid, benzenesulfonic acid), were conducted."}, "[5]": {"test": "Dissolution behaviour in water", "format": "physicochemical", "procedure": "Pharmaceutically acceptable salts were prepared using tartaric acid, fumaric acid, and phosphoric acid."}, "[6]": {"details": "mouse, in vivo, 10 mg/kg", "quoted_text": "as §1, §2"}, "[7]": {"details": "mice, aqueous suspension, 10 mg/kg of free base, 10 mg/kg"}, "[8]": {"details": "mice, aqueous suspension, 10 mg/kg of free base"}},
  "note": "“Also recorded” adds a separate entry of the source. Like-named read-outs stand apart in the source and are kept apart here.",
  "data": [
    {"compound": "CN1CCN(Cc2ccc(-c3cnc4[nH]cc(-c5ccc6[nH]ccc6c5)c4c3)cc2)CC1", "note": "[Compound 1, 3-(1H-indol-5-yl)-5-[4-[(4-methyl-1-piperazinyl)methyl]phenyl]-1H-pyrrolo[2,3-b]pyridine]", "values": [
      {"measurement": "pharmacokinetic properties and CNS penetration", "setting": "[1]", "result": "excellent pharmacokinetic properties and central nervous system (CNS) penetration"},
      {"measurement": "solubility in methanol, ethanol or 95% ethanol", "setting": "[2]; listed as free base", "result": "not very soluble in methanol, ethanol, or 95% ethanol at room temperature"},
      {"measurement": "Mean plasma concentration at 0.33 hr", "setting": "[3]; mice, aqueous suspension, 10 mg/kg of free base, 0.33 hr, 10 mg/kg", "result": "LLQ"},
      {"measurement": "Mean plasma concentration at 1.0 hr", "setting": "[3]; [7]", "result": 1.91, "unit": "ng/mL"},
      {"measurement": "Mean plasma concentration at 1.5 hr", "setting": "[3]; [7]", "result": 10.0, "unit": "ng/mL"},
      {"measurement": "concentration at 0.67 h", "setting": "[3]; mouse, plasma, oral, 10 mg/kg, Mean plasma concentration at 0.67 hr, mice, aqueous suspension, 10 mg/kg of free base, 0.67 hr", "result": 1.46, "unit": "ng/mL"},
      {"measurement": "concentration at 2 h", "setting": "[3]; mouse, plasma, oral, 10 mg/kg, Mean plasma concentration at 2.0 hr, mice, aqueous suspension, 10 mg/kg of free base, 2.0 hr", "result": 20.4, "unit": "ng/mL"},
      {"measurement": "concentration at 4 h", "setting": "[3]; mouse, plasma, oral, 10 mg/kg, Mean plasma concentration at 4.0 hr, mice, aqueous suspension, 10 mg/kg of free base, 4.0 hr", "result": 46.9, "unit": "ng/mL"},
      {"measurement": "Tmax", "setting": "[3]; mouse, plasma, po, 10 mg/kg", "result": 6, "unit": "h"},
      {"measurement": "AUC(0-t)", "setting": "[3]; mouse, plasma, po, 10 mg/kg, AUClast, mice, aqueous suspension, 10 mg/kg of free base, 6-hour study", "result": 181, "unit": "ng·h/mL"},
      {"measurement": "Cmax", "setting": "[3]; mouse, plasma, po, 10 mg/kg, Cmax, mice, aqueous suspension", "result": 56.3, "unit": "ng/mL"},
      {"measurement": "plasma serum levels upon administration without excipients such as DMSO", "setting": "[4]", "result": "only low plasma serum levels"},
      {"measurement": "solubility in water / aqueous and organic carriers", "setting": "[4]", "result": "insoluble in water; also recorded: limited solubility in typical aqueous and organic carriers"}
    ]},
    {"compound": "CN1CCN(Cc2ccc(-c3cnc4[nH]cc(-c5ccc6[nH]ccc6c5)c4c3)cc2)CC1", "note": "[Fumarate, 3-(1H-indol-5-yl)-5-[4-[(4-methyl-1-piperazinyl)methyl]phenyl]-1H-pyrrolo[2,3-b]pyridine]", "values": [
      {"measurement": "solubility in methanol, ethanol or 95% ethanol", "setting": "[2]", "result": "dissolved readily in hot methanol"}
    ]},
    {"compound": "CN1CCN(Cc2ccc(-c3cnc4[nH]cc(-c5ccc6[nH]ccc6c5)c4c3)cc2)CC1", "note": "[Phosphate, 3-(1H-indol-5-yl)-5-[4-[(4-methyl-1-piperazinyl)methyl]phenyl]-1H-pyrrolo[2,3-b]pyridine]", "values": [
      {"measurement": "solubility in methanol, ethanol or 95% ethanol", "setting": "[2]", "result": "least soluble in methanol of the three salts tested"},
      {"measurement": "solubility in methanol, ethanol or 95% ethanol", "setting": "[2]; listed as Phosphoric Acid", "result": "low in methanol"},
      {"measurement": "Tmax", "setting": "[3]; [8]", "result": 6.00, "unit": "h"},
      {"measurement": "exposure compared with free base", "setting": "[3]; [8]", "result": "superior to the free base in key pharmacokinetic measures"},
      {"measurement": "AUClast", "setting": "[3]; mice, aqueous suspension, 10 mg/kg of free base, 6-hour study, 10 mg/kg", "result": 230, "unit": "ng·h/mL"},
      {"measurement": "Mean plasma concentration at 0.67 hr", "setting": "[3]; mice, aqueous suspension, 10 mg/kg of free base, 0.67 hr, 10 mg/kg", "result": 2.71, "unit": "ng/mL"},
      {"measurement": "Mean plasma concentration at 1.0 hr", "setting": "[3]; [7]", "result": 7.32, "unit": "ng/mL"},
      {"measurement": "Mean plasma concentration at 1.5 hr", "setting": "[3]; [7]", "result": 21.9, "unit": "ng/mL"},
      {"measurement": "Mean plasma concentration at 2.0 hr", "setting": "[3]; mice, aqueous suspension, 10 mg/kg of free base, 2.0 hr, 10 mg/kg", "result": 31.7, "unit": "ng/mL"},
      {"measurement": "Mean plasma concentration at 4.0 hr", "setting": "[3]; mice, aqueous suspension, 10 mg/kg of free base, 4.0 hr, 10 mg/kg", "result": 48.3, "unit": "ng/mL"},
      {"measurement": "Cmax", "setting": "[3]; mice, aqueous suspension, 10 mg/kg", "result": 78, "unit": "ng/mL"},
      {"measurement": "concentration at 0.33 h", "setting": "[3]; mouse, plasma, oral, 10 mg/kg, Mean plasma concentration at 0.33 hr, mice, aqueous suspension, 10 mg/kg of free base, 0.33 hr", "result": 0.679, "unit": "ng/mL"}
    ]},
    {"compound": "tartrate salt of 3-(1H-indol-5-yl)-5-[4-[(4-methyl-1-piperazinyl)methyl]phenyl]-1H-pyrrolo[2,3-b]pyridine", "values": [
      {"measurement": "kinetic dissolution in water", "setting": "[5]", "result": "fastest to kinetically dissolve"},
      {"measurement": "AUClast", "setting": "[6]", "result": 259, "unit": "ng·h/mL"},
      {"measurement": "Cmax", "setting": "[6]", "result": 66.9, "unit": "ng/mL"},
      {"measurement": "Mean plasma concentration at 0.33 hr", "setting": "[6]", "result": 4.24, "unit": "ng/mL"},
      {"measurement": "Mean plasma concentration at 0.67 hr", "setting": "[6]", "result": 8.2, "unit": "ng/mL"},
      {"measurement": "Mean plasma concentration at 1.0 hr", "setting": "[6]", "result": 15.2, "unit": "ng/mL"},
      {"measurement": "Mean plasma concentration at 1.5 hr", "setting": "[6]", "result": 31.4, "unit": "ng/mL"},
      {"measurement": "Mean plasma concentration at 2.0 hr", "setting": "[6]", "result": 38.8, "unit": "ng/mL"},
      {"measurement": "Mean plasma concentration at 4.0 hr", "setting": "[6]", "result": 63.4, "unit": "ng/mL"},
      {"measurement": "Tmax", "setting": "[6]", "result": 4.67, "unit": "h"}
    ]}
  ]
}
